Here are results for eleven compounds from ChEMBL document CHEMBL5241080, “Quinoline anticancer agents active on DNA and DNA-interacting proteins: From classical to emerging therapeutic targets” (Eur J Med Chem, 2021).

Data set [1] has as its target Hepatocyte growth factor receptor (Homo sapiens, UniProt P08581). Nature of the data set: Inhibition of c-MET (unknown origin).
Data set [2] deals with HCT-116. Nature of the data set: Cytotoxicity against human HCT-116 cells assessed as inhibition of cell growth incubated for 72 hrs by MTT assay. The note with it: HCT-116, 72 h. Format: functional, cell-based. On the technique in general: Formazan colour is commonly taken as a measure of viable cells.
Data set [3] has as its system A549. Nature of the data set: Cytotoxicity against human A549 cells incubated for 72 hrs by MTT assay. Conditions: A549, 72 h. Type of data set: functional, cell-based.
Data set [4] concerns HCT-116. Nature of the data set: Antiproliferative activity against human HCT-116 cells. Type of data set: functional, cell-based.
A further data set deals with T1, DNA topoisomerase 1 (Homo sapiens, UniProt P11387).
T1 sequence (P11387 whole entry): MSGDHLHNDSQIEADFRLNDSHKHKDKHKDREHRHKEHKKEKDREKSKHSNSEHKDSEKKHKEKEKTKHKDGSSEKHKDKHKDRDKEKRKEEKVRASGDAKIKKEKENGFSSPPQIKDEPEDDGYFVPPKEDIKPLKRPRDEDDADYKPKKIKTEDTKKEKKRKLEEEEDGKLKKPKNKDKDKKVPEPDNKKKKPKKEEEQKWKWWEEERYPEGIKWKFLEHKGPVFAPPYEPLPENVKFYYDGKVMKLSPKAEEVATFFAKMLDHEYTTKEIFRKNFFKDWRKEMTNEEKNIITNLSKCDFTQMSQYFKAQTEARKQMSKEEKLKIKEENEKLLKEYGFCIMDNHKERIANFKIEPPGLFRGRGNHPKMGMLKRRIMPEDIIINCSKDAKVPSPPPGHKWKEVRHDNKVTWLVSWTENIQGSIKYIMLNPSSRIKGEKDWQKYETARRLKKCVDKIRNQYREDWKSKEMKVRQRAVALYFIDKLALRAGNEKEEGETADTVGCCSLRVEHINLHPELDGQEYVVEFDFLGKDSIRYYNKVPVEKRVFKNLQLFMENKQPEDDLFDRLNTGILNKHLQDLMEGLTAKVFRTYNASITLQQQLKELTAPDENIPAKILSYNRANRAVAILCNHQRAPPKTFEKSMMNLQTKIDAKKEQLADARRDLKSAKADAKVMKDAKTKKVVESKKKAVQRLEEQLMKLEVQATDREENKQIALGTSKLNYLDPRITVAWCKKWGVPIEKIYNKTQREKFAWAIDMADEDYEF
Nature of the data set: Inhibition of topoisomerase 1 (unknown origin).

Data set [5] is described as follows: Inhibition of topoisomerase 2 (unknown origin). Details: species or system Homo sapiens.
Data set [6] in a line: Antiproliferative activity against mouse P338 cells. Type of data set: functional, cell-based.
Another data set relates to KB. Nature of the data set: Antiproliferative activity against human KB cells. Type of data set: functional, cell-based.
In data set [7] the test system is MCF7. Nature of the data set: Cytotoxicity against human MCF7 cells by MTT assay. Type of data set: functional.
Data set [8] has as its system HeLa. Nature of the data set: Cytotoxicity against human HeLa cells by MTT assay. Type of data set: functional.
Data set [9] can be described thus: Cytotoxicity against human CAL1 cells by MTT assay. Type of data set: functional.
For another data set, the system named is C-33-A. Nature of the data set: Cytotoxicity against human C-33-A cells by MTT assay. Format: functional.
The test system of the next data set is SW480. Nature of the data set: Cytotoxicity against human SW480 cells by MTT assay. Format: functional.
In a further data set the test system is SW-620. Nature of the data set: Cytotoxicity against human SW620 cells by MTT assay. Format: functional.
Another data set concerns K-562R. Nature of the data set: Cytotoxicity against human K-562R cells by MTT assay. Format: functional.
The test system of another data set is MGC-803. Nature of the data set: Cytotoxicity against human MGC-803 cells. Type of data set: functional, cell-based.
The test system of a further data set is HepG2. Nature of the data set: Cytotoxicity against human HepG2 cells. Type of data set: functional, cell-based.
For the next data set, the system named is T-24. Nature of the data set: Cytotoxicity against human T24 cells. Type of data set: functional, cell-based.
The subject of data set [10] is NCI-H460. Nature of the data set: Cytotoxicity against human NCI-H460 cells. Format: functional, cell-based.
The test system of the next data set is U-937. Nature of the data set: Antiproliferative activity against human U-937 cells assessed as reduction cell viability incubated for 48 hrs by MTT assay. Type of data set: functional, cell-based. Conditions: U-937, 48 h.
A further data set concerns Raji. Nature of the data set: Antiproliferative activity against human Raji cells assessed as reduction cell viability incubated for 48 hrs by MTT assay. Format: functional, cell-based.
The test system of another data set is PC-3. Nature of the data set: Antiproliferative activity against human PC-3 cells assessed as reduction cell viability incubated for 48 hrs by MTT assay. Conditions: PC-3, 48 h. Type of data set: functional, cell-based.
Another data set concerns MDA-MB-231. Nature of the data set: Antiproliferative activity against human MDA-MB-231 cells assessed as reduction cell viability incubated for 48 hrs by MTT assay. Type of data set: functional, cell-based. Conditions: MDA-MB-231, 48 h.
Data set [11] can be described thus: Antiproliferative activity against human RPMI cells assessed as reduction cell viability incubated for 48 hrs by MTT assay. Format: functional, cell-based.
Data set [12] addresses T2, DNA (cytosine-5)-methyltransferase 1 (Homo sapiens, UniProt P26358). Nature of the data set: Inhibition of human recombinant full-length N-terminal GST tagged DNMT1 (2 to 1632 residues) expressed in Sf9 insect cells using poly(dI-dC) as substrate by hotspot assay.
The target of data set [13] is T3, DNA (cytosine-5)-methyltransferase 3A (Homo sapiens, UniProt Q9Y6K1). Nature of the data set: Inhibition of human recombinant DNMT3A (214 to 912 residues)expressed in Sf9 insect cells using lambda DNA as substrate by scintillation/filter plate assay.
Another data set relates to HL-60. Nature of the data set: Antiproliferative activity against human HL-60 cells assessed as reduction cell viability incubated for 48 hrs by MTT assay. Format: functional, cell-based. Conditions: HL-60, 48 h.
The next data set concerns NCI-H1299. Nature of the data set: Antiproliferative activity against human NCI-H1299 cells assessed as reduction cell viability incubated for 48 hrs by MTT assay. Type of data set: functional, cell-based. The note with it: NCI-H1299, 48 h.
Data set [14] relates to HCT-116. Nature of the data set: Antiproliferative activity against human HCT-116 cells assessed as reduction cell viability incubated for 48 hrs by MTT assay. Format: functional, cell-based. The note with it: HCT-116, 48 h.
The test system of data set [15] is HeLa. Nature of the data set: Antiproliferative activity against human HeLa cells assessed as reduction cell viability incubated for 48 hrs by MTT assay. Format: functional, cell-based.
A further data set concerns M14. Nature of the data set: Antiproliferative activity against human M14 cells assessed as reduction cell viability incubated for 48 hrs by MTT assay. Format: functional, cell-based. Conditions: M14, 48 h.
For the next data set, the system named is HT-1080. Nature of the data set: Antiproliferative activity against human HT-1080 cells assessed as reduction cell viability incubated for 48 hrs by MTT assay. Type of data set: functional, cell-based. Conditions: HT-1080, 48 h.
The test system of data set [16] is MCF7. Nature of the data set: Antiproliferative activity against human MCF7 cells assessed as reduction cell viability incubated for 48 hrs by MTT assay. Type of data set: functional, cell-based. Conditions: MCF7, 48 h.
The target of data set [17] is T2, DNA (cytosine-5)-methyltransferase 1. Nature of the data set: Inhibition of his-tagged human DNMT1 by scintillation counter analysis.
For data set [18], the target named is T3, DNA (cytosine-5)-methyltransferase 3A. Nature of the data set: Inhibition of C-terminal biotin-labelled human DNMT3A by multilabel plate reader analysis.
The next data set addresses Histone deacetylase. Nature of the data set: Inhibition of HDAC (unknown origin). Format: protein assay, Homo sapiens.
For data set [19], the system named is NCI-H460. Nature of the data set: Antiproliferative activity against human NCI-H460 cells. Format: functional, cell-based.
In the next data set the test system is U-251. Nature of the data set: Antiproliferative activity against human U-251 cells. Format: functional, cell-based.
Another data set has as its system RPMI-8226. Nature of the data set: Antiproliferative activity against human RPMI-8226 cells. Format: functional, cell-based.
The test system of a further data set is U-266. Nature of the data set: Antiproliferative activity against human U-266 cells. Format: functional, cell-based.
The next data set deals with NCI-H929. Nature of the data set: Antiproliferative activity against human NCI-H929 cells. Format: functional, cell-based.
In data set [20] the test system is A549. Nature of the data set: Antiproliferative activity against human A549 cells. Format: functional, cell-based.
Data set [21] has as its target Protein deacetylase HDAC6 (Homo sapiens, UniProt Q9UBN7). Nature of the data set: Inhibition of HDAC6 (unknown origin).
Data set [22] can be described thus: Oral bioavailability CD-1 mouse at 30 mg/kg. Conditions: in vivo. Type of data set: ADME, organism-based.

SMILES strings stand for the structures.

T3 sequence (Q9Y6K1 whole entry, looked up, the tested form may be a part): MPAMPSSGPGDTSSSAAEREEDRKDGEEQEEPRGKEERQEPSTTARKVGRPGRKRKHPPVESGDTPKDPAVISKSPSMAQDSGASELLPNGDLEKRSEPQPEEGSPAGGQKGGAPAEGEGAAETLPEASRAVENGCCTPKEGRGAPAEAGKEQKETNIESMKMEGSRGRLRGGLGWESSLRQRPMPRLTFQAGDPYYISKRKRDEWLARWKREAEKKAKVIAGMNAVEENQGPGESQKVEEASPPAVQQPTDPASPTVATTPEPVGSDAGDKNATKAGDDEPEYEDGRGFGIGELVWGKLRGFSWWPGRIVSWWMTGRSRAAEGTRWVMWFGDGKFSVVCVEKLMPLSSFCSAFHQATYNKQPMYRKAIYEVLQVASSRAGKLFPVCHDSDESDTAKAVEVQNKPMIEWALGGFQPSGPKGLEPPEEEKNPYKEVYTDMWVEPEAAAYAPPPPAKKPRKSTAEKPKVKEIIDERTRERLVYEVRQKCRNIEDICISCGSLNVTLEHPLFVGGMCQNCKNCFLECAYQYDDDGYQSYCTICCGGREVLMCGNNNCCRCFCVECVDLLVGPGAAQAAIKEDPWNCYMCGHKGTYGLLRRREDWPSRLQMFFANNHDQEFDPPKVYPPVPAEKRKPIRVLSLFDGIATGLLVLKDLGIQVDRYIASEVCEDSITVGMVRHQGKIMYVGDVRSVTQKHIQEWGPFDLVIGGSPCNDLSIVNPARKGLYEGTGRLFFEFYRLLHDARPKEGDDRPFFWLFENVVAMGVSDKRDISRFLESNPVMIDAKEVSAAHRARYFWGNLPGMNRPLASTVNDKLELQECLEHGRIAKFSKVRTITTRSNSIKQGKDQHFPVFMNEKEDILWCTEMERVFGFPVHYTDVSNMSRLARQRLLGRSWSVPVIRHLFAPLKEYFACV
T2 sequence (P26358 whole entry, the tested form may be a part): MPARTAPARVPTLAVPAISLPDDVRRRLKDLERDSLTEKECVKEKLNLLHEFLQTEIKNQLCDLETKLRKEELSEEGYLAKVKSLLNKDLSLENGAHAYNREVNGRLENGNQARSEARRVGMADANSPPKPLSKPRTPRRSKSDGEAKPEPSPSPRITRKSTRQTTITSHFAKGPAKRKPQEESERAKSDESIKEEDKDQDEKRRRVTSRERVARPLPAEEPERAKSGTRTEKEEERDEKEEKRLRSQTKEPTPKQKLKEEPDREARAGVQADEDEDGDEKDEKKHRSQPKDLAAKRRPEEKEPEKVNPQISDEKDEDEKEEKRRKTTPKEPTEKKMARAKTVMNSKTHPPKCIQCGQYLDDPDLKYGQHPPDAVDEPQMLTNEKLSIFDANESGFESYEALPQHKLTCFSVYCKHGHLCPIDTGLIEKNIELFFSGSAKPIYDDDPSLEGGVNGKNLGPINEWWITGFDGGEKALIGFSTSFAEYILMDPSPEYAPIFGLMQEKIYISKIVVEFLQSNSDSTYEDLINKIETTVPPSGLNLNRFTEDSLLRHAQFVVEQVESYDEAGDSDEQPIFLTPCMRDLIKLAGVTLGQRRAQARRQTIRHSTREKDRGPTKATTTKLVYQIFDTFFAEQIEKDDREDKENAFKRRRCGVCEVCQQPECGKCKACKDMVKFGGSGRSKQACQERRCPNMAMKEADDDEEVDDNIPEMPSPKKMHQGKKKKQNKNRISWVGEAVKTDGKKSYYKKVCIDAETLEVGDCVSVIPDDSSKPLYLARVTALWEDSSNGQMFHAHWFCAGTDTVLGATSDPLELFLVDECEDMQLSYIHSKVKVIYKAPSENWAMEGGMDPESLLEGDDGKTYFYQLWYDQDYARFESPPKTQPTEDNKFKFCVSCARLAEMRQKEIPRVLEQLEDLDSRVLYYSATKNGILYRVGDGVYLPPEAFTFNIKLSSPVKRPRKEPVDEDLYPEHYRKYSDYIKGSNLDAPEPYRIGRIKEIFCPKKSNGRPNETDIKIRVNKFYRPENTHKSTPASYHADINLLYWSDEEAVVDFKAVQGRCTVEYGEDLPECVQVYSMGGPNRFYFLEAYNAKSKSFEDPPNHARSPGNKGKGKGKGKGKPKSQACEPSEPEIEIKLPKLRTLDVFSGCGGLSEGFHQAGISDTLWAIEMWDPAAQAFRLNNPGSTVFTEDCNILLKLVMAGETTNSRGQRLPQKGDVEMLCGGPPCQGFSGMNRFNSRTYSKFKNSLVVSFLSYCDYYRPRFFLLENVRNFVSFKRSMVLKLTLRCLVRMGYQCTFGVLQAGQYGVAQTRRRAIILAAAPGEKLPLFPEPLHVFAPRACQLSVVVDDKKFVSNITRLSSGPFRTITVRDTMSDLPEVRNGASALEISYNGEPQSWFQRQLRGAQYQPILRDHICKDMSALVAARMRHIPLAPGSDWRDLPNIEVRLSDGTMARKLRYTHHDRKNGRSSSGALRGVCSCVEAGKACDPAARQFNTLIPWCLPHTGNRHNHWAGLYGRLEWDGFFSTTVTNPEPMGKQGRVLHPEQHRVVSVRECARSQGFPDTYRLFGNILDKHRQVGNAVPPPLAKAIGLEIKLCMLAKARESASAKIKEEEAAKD
Hepatocyte growth factor receptor, sequence (P08581 whole entry): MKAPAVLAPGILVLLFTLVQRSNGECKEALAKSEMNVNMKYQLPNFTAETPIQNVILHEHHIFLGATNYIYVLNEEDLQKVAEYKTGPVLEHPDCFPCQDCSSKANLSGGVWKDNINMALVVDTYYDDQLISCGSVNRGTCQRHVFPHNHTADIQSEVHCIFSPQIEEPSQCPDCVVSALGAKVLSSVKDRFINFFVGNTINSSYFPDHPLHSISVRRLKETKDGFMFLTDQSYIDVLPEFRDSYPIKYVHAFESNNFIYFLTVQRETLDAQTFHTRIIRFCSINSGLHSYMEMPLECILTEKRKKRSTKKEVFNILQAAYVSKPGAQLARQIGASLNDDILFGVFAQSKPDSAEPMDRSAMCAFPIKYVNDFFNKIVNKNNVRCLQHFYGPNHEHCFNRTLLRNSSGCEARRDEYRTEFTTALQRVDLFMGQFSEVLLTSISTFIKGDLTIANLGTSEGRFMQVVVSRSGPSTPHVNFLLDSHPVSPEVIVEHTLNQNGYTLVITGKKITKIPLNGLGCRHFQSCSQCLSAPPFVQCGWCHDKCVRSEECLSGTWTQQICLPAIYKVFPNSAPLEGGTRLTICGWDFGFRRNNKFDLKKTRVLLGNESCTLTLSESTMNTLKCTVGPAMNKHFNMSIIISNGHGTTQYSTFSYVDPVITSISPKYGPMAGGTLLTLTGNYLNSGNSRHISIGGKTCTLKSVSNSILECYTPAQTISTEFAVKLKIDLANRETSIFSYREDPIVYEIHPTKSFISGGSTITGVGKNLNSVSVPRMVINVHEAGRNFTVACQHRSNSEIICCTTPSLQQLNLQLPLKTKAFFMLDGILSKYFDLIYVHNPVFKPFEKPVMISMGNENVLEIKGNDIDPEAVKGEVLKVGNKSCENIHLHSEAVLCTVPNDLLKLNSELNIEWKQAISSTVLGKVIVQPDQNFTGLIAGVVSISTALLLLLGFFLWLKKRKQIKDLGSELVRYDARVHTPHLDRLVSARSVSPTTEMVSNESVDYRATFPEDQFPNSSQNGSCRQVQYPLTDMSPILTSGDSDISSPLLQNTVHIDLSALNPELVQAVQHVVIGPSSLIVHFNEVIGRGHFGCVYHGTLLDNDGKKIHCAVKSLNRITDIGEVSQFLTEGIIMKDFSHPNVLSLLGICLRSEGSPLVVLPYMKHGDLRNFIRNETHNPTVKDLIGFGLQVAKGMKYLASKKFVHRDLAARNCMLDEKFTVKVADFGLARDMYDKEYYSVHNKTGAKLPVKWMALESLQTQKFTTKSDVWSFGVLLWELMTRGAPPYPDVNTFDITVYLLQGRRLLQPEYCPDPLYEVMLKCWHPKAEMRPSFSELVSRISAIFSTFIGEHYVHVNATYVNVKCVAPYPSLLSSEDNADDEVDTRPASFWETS
Protein deacetylase HDAC6, sequence (Q9UBN7 whole entry): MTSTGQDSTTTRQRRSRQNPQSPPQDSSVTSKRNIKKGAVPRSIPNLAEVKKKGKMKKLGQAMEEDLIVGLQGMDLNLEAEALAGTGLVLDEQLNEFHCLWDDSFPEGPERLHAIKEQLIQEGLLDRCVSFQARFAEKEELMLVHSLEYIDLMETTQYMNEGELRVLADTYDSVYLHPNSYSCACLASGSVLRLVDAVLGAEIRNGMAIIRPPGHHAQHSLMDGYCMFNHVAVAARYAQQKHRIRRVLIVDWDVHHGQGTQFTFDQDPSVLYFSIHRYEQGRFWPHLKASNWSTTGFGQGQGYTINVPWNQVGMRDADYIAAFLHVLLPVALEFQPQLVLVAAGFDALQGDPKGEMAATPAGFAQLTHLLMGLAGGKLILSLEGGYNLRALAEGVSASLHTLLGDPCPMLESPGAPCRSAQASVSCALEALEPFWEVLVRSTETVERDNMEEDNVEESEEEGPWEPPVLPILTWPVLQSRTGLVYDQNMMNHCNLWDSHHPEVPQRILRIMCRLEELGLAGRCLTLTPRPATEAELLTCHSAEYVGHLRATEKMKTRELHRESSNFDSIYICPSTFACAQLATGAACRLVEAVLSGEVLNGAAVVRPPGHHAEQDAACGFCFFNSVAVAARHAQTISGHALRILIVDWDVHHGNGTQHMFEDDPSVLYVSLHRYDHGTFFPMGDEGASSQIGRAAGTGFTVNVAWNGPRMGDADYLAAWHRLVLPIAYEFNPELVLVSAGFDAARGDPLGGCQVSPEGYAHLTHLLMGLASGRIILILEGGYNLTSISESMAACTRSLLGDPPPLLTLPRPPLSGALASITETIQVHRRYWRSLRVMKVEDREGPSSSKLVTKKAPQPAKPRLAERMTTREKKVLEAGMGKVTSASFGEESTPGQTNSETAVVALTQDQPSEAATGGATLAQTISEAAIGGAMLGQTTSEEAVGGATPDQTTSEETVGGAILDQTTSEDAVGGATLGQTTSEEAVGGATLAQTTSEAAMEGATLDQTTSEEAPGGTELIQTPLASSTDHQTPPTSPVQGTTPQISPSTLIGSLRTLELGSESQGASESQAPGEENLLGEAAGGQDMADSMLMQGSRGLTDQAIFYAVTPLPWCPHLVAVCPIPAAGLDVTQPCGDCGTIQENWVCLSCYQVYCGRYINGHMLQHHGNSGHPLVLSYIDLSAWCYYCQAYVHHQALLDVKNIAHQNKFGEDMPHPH

As a reminder, the IC50 is the concentration that gives 50% inhibition. With `COc1cc2c(Oc3ccc(NC(=O)C4CCN(c5ccc(F)cc5)C4=O)cc3)ccnc2cc1OCCCCCCC(=O)NO` (configuration not stated), the IC50 is 12.5 nM in [1], 0.54 nM in the data set with HCT-116 [2] and 1080 nM in the data set on A549 [3].

In the data set on HCT-116 [4], `CCN(CC)CCOC(=O)c1ccc2c(c1)C1C(C(=O)c3ccccc3N1CCN(CC)CC)N2CCN(CC)CC` (configuration not stated) had an IC50 of under 10000 nM.

With `CN(C)CCNc1nc2cc(O)ccc2c2c1C(=O)c1ccccc1-2`, the half-maximal inhibitory concentration (IC50) against DNA topoisomerase 1 came out at 2000 nM; in data set [5], 6.5 µM; in data set [6], 1.1 nM; in the data set on KB, 9.6 nM.

By GI50 is commonly meant the concentration at which growth is held to half of that of the control. Read a high GI50 as lower sensitivity of the cells. Regarding `CCN(CC)CCNc1nc2c(Nc3ccccc3)c3ccccc3nc2s1`, the GI50 (in the data set on MCF7 [7]; with HeLa [8]; in data set [9]; in the data set on C-33-A; in the data set with SW480; with SW-620) was 15.9 µM in each case. In the data set on K-562R, the GI50 stood at 15.9 µM.

`CCCCCCOc1ccc(/C=N/Nc2cc(C)nc3ccc(Cl)cc23)cc1`: the 50% inhibitory concentration (IC50) came to 2200 nM with MGC-803, 4.88 µM in the data set with HepG2, 3.17 µM with T-24 and 3.22 µM with NCI-H460 [10].

What is called IC90 is the concentration at which the effect reaches the 90% level. Lower therefore signals an effect from little substance. `CCN(CC)CCOC(=O)c1ccc2c(c1)c1nc3ccccc3c(OCCN(CC)CC)c1n2CCN(CC)CC` yielded a 90% effect concentration (IC90) with HCT-116 [4] of under 10 µM.

As to `O=C(Nc1ccc(NC(=O)c2ccc(Nc3ccnc4ccccc34)cc2)cc1)OCc1ccccc1`, the half-inhibitory concentration (IC50) was determined as 400 nM in the data set with U-937; 400 nM in the data set on Raji; 900 nM in the data set on PC-3; 900 nM with MDA-MB-231; 2400 nM in data set [11]; 67 µM in data set [12]. Also, the IC50 in data set [13] worked out at 17 µM.

As for `O=C(Nc1ccc(Nc2ccnc3ccccc23)cc1)c1cccc(Nc2ccnc3ccccc23)c1`, the IC50 in the data set with U-937 came to 700 nM; in the data set with HL-60 it was 1600 nM; in the data set with NCI-H1299, 5.3 µM; with HCT-116 [14] it was 1500 nM; with HeLa [15], 2000 nM; with M14 it was 4.7 µM. The IC50 with HT-1080 stood at 2700 nM; with MCF7 [16], 300 nM; in [17] it was 27 µM; in data set [18] it was 800 nM.

Take `CC1(C)CC(=O)Nc2ccc(C(=O)NCC3CCC(/C=C/C(=O)NO)CC3)cc21` (configuration not stated): the concentration for half-maximal inhibition (IC50) in the data set with HCT-116 [4] is 600 nM; against Histone deacetylase, 1.5 nM; with NCI-H460 [19] it was 1 nM; in the data set on U-251, 0.6 nM.

For the compound `O=C(/C=C/c1cccc(S(=O)(=O)c2ccc3ccccc3n2)c1)NO`, the concentration for half-maximal inhibition (IC50) amounted to 7.49 µM with RPMI-8226; 40.6 µM in the data set on U-266; 9.14 µM with NCI-H929; 270 nM in the data set on A549 [20]; 0.291 nM in data set [21].

What is called bioavailability is the share of a dose that reaches the circulation, judged against a reference dose that is usually intravenous. A low value points to little systemic uptake. As for `COc1ccc2c(c1)/C(=N\OCCN1CCCC1)c1c-2c(O)nc2ccccc12`, the bioavailability in [22] was 10.9%.
